Data as given in ChEMBL document CHEMBL4715747 (Eur J Med Chem, 2016).
Activity calls are given as the source filed them. The rule behind the calls is not given here.

Tests used:
H22 [1] = assay: Antitumor activity against mouse H22 cells transplanted in Kunming mouse assessed as tumor growth inhibition at 100 mg/kg/day, po administered 5 days per week for 2 weeks; type: functional, organism-based
MCF7 = assay: Antiproliferative activity against human MCF7 cells after 48 hrs by MTT assay; conditions: MCF7, 48 h
HeLa = assay: Antiproliferative activity against human HeLa cells after 48 hrs by MTT assay
[2] = Antiproliferative activity against human ES2 cells after 48 hrs by MTT assay; conditions: ES-2, 48 h
[3] = Antiproliferative activity against human 3AO cells after 48 hrs by MTT assay
KG-1 = assay: Antiproliferative activity against human KG1 cells after 48 hrs by MTT assay; conditions: KG-1, 48 h
HCT-116 = assay: Antiproliferative activity against human HCT-116 cells after 48 hrs by MTT assay; conditions: HCT-116, 48 h
[4] = Antiproliferative activity against human H7402 cells after 48 hrs by MTT assay; conditions: H7402, 48 h
HepG2 = assay: Antiproliferative activity against human HepG2 cells after 48 hrs by MTT assay; conditions: HepG2, 48 h
PLC-PRF-5 [5] = assay: Antiproliferative activity against human PLC-PRF-5 cells after 48 hrs by MTT assay; conditions: PLC-PRF-5, 48 h
H22 [6] = assay: Antitumor activity against mouse H22 cells transplanted in Kunming mouse assessed as tumor growth inhibition at 20 mg/kg/day, ip administered 5 days per week for 2 weeks; type: functional, organism-based
H22 [7] = assay: Antitumor activity against 5-FU-resistant mouse H22 cells transplanted in Kunming mouse assessed as tumor growth inhibition at 200 uM/kg/day, po administered for 14 days; type: functional, organism-based; conditions: time 14.0 day
MDA-MB-231 = assay: cells; conditions: Homo sapiens, MDA-MB-231, 48 h
Description: Antiproliferative activity against human MDA-MB-231 cells after 48 hrs by MTT assay

HEL = assay: cells; conditions: Homo sapiens, 48 h
Description: Antiproliferative activity against human HEL cells after 48 hrs by MTT assay

PC-3 = assay: cells; conditions: Homo sapiens, PC-3, 48 h
Description: Antiproliferative activity against human PC-3 cells after 48 hrs by MTT assay

Aminopeptidase N = target: T1, Aminopeptidase N (Sus scrofa, UniProt P15145); assay: Inhibition of porcine kidney microsomal CD13 using L-leucine-p-nitroanilide as substrate preincubated for 5 mins followed by substrate addition and measured after 30 mins by microplate reader analysis; type: microsomes, Microsome
T1 sequence (P15145 whole entry): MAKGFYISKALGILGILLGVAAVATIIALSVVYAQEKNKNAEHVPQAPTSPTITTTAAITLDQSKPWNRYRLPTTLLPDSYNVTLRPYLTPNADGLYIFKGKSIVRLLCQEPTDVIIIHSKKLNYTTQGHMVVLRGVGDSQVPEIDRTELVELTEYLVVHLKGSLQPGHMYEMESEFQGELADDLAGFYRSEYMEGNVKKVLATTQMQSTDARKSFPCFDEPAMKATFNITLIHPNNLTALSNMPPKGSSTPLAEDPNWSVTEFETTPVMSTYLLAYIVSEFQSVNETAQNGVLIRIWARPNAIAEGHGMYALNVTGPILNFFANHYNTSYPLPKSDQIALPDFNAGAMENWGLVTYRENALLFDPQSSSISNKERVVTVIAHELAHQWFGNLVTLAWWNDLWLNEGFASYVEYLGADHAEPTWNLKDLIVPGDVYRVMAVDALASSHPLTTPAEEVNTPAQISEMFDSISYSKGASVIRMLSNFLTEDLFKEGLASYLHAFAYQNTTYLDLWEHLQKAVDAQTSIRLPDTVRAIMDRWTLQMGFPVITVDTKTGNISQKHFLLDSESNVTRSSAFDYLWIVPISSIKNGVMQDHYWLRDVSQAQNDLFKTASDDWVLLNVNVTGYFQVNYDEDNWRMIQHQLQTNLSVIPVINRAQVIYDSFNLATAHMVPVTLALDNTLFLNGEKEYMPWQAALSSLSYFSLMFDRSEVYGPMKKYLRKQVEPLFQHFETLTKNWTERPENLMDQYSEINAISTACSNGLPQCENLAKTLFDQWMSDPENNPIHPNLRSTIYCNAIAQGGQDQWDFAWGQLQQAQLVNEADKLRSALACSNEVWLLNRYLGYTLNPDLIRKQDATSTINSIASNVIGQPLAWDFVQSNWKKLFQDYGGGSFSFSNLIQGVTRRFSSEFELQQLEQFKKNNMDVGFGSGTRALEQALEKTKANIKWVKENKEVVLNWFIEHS

A549 = assay: Antiproliferative activity against human A549 cells after 48 hrs by MTT assay; conditions: A549, 48 h
HUVEC [8] = assay: Anti-angiogenesis activity in HUVEC assessed as inhibition of capillary like tube formation incubated for 6 hrs by matrigel based capillary tube formation assay; type: functional, cell-based; conditions: Homo sapiens, dose 10-30 µM
HUVEC [9] = assay: Anti-angiogenesis activity in HUVEC assessed as inhibition of capillary like tube formation at 30 uM incubated for 6 hrs by matrigel based capillary tube formation assay; type: functional, Homo sapiens; parameters: scale not given: the % may be the effect or the level left
Aorta = assay: Anti-angiogenesis activity in Wistar rat thoracic aortic rings assessed as decrease in number of microvessels sprouting at 20 ug/ml treated every other day for 9 days; type: functional, tissue-based; conditions: dose 20.0 µg/ml, time 9.0 day
H22 [10] = assay: Antitumor activity against mouse H22 cells transplanted in iv dosed Kunming mouse assessed as tumor growth inhibition administered 5 days per week for 2 weeks; type: functional, organism-based; conditions: dose 20-80 mg/kg
H22 [11] = assay: Antitumor activity against mouse H22 cells transplanted in Kunming mouse assessed as tumor growth inhibition at 80 mg/kg/day, iv administered 5 days per week for 2 weeks relative to treated combination of 5-FU and Ube; type: functional, organism-based
H22 [12] = assay: Antitumor activity against mouse H22 cells transplanted in orally dosed Kunming mouse assessed as tumor growth inhibition administered 5 days per week for 2 weeks; type: functional, organism-based; conditions: dose 40-80 mg/kg
H22 [13] = assay: Antitumor activity against mouse H22 cells transplanted in Kunming mouse assessed as tumor growth inhibition at 80 mg/kg/day, po administered 5 days per week for 2 weeks; type: functional, organism-based
[14] = Toxicity in Kunming mouse transplanted with mouse H22 cells assessed as change in body weight at 40 to 80 mg/kg/day, po administered 5 days per week for 2 weeks; type: organism-based; conditions: in vivo, 336 h, dose 40-80 mg/kg/day
[15] = Toxicity in Kunming mouse transplanted with mouse H22 cells assessed as side effects at 40 to 80 mg/kg/day, po administered 5 days per week for 2 weeks; type: organism-based; conditions: in vivo, 336 h, dose 40-80 mg/kg/day
PLC-PRF-5 [16] = assay: Antitumor activity against human PLC-PRF-5 cells xenografted in iv dosed BALB/c athymic nude mouse assessed as tumor growth inhibition; type: functional, organism-based; conditions: dose 20-80 mg/kg
PLC-PRF-5 [17] = assay: Antitumor activity against human PLC-PRF-5 cells xenografted in orally dosed NOD/SCID mouse assessed as tumor growth inhibition; type: functional, organism-based; conditions: dose 100-120 mg/kg
[18] = Toxicity in BALB/c athymic nude mouse xenografted with human PLC-PRF-5 cells assessed as change in body weight at 20 to 80 mg/kg, iv; type: organism-based; conditions: in vivo, dose 20-80 mg/kg
[19] = Toxicity in NOD/SCID mouse xenografted with human PLC-PRF-5 cells assessed as change in body weight at 100 to 120 mg/kg, po; type: organism-based; conditions: in vivo, dose 100-120 mg/kg
H22 [20] = assay: Antimetastatic activity against mouse H22 cells inoculated in orally dosed Kunming mouse assessed as reduction in lung metastatic nodes administered for 5 days starting from day 11 post inoculation and 2 days of withdrawal measured after 24 days; type: functional, organism-based; conditions: dose 80-100 mg/kg, time 5.0 day
[21] = Toxicity in Kunming mouse transplanted with 5-FU-resistant mouse H22 cells assessed as change in body weight at 200 uM/kg/day, po administered daily for 14 days; type: organism-based; conditions: in vivo, 336 h, time 14 day
[22] = Prodrug conversion in human plasma assessed as release of active metabolites 5-FU and Ube measured within 30 mins at 37 degC; type: ADME, cell-free; conditions: 0.5 h

SMILES | IC50 (MCF7) | IC50 (HeLa) | IC50 [2] | IC50 [3] | IC50 (KG-1) | IC50 (HCT-116) | IC50 [4] | IC50 (HepG2) | IC50 (PLC-PRF-5 [5]) | Activity (H22 [7]) | IC50 (MDA-MB-231) | IC50 (HEL) | IC50 (PC-3) | Activity (Aorta) | further results
CCCCCOC(=O)Nc1nc(=O)n([C@@H]2O[C@H](C)[C@@H](O)[C@H]2O)cc1F | – | – | – | – | – | – | – | – | – | – | – | – | – | – | Activity (H22 [1]): Active
O=c1[nH]cc(F)c(=O)[nH]1 [FLUOROURACIL] | 71.5 µM | 133 µM | 93.5 µM | 60.8 µM | 83 µM | 84.9 µM | 29 µM | 13.5 µM | 38.4 µM | inactive | 22.5 µM | 32.3 µM | 106 µM | – | Activity (H22 [6]): Active
CC(C)C[C@H](NC(=O)[C@@H](O)[C@H](N)Cc1ccccc1)C(=O)OCn1cc(F)c(=O)[nH]c1=O.Cl | 19 µM | 7.27 µM | 22.8 µM | 25.9 µM | 30.9 µM | 14.7 µM | 11.5 µM | 7.49 µM | 17.5 µM | Active | 10.5 µM | 9.18 µM | 24.3 µM | Active | IC50 (Aminopeptidase N): 6.98 µM; IC50 (A549): 5.68 µM; Activity (HUVEC [8]): Dose-dependent effect; Activity (HUVEC [9]): 100%; Activity (H22 [10]): Dose-dependent effect; Activity (H22 [11]): Active; Activity (H22 [12]): Dose-dependent effect; Activity (H22 [13]): Active; Activity [14]: Non-Toxic; Activity [15]: Non-Toxic; Activity (PLC-PRF-5 [16]): Dose-dependent effect; Activity (PLC-PRF-5 [17]): Dose-dependent effect; Activity [18]: Non-Toxic; Activity [19]: Non-Toxic; Activity (H22 [20]): Dose-dependent effect; Activity [21]: Non-Toxic; Drug metabolism [22]: Metabolite_Detected
CC(C)C[C@H](NC(=O)[C@@H](O)[C@H](N)Cc1ccccc1)C(=O)O [UBENIMEX] | > 500 µM | > 500 µM | > 500 µM | > 500 µM | > 500 µM | 315 µM | > 500 µM | > 500 µM | > 500 µM | – | > 500 µM | 417 µM | – | Active | Activity (HUVEC [9]; Homo sapiens): Active
